Counter-ions that a name gives are not always drawn. Like-named read-outs stand apart in the source and are kept apart here.
Experiments:
Format in all cases: cell-based
[1] = tested on: Trichophyton rubrum MYA4498; assay: Morphological effects of antifungal preparations on dermatophyte hyphae in vitro (calcofluor white microscopy); conditions: T. rubrum hyphae; for Week 1 Change in morphology If yes, description of change: hydrochloride
Protocol: The morphological changes to dermatophyte hyphae following exposure to an antifungal formulation of the invention, specifically a terbinafine formulation, compared to terbinafine hydrochloride solution in vitro were evaluated.
Trichophyton rubrum MYA4498, one of the quality control isolates approved by the Clinical and Laboratory Standards Institute (CLSI) for dermatophyte susceptibility testing, was used as a test isolate throughout testing, (See, Ghannoum et al., 2004, J Clin Microbiol. 42(7): 2977-2979; Ghannoum et al., J Clin Microbiol. 44: 353-4350. Inoculum containing 3×10^3 conidia/ml of T. rubrum was prepared in RPMI-1640 buffered with MOPS (Hardy Diagnostics, Santa Maria. CA), added to the wells of microtiter plates (100 ul aliquots) and incubated at 35° C. for 2-3 days until good hyphal growth was achieved. Specific concentrations of 1 mg/ml, 3 mg/ml, and 15 mg/ml of terbinafine alone were prepared in RPMI-1640. The terbinafine hydrochloride (1 mg/ml. 3 mg/ml, and 15 mg/ml) and 15 mg/ml of a terbinafine formulation of the invention was added to the wells of the microtiter plates (100 ul aliquots) and re-incubated. Twenty plates for each drug were set up to ensure adequate sample for examination over several weeks; RPMI was added as needed to maintain the volume of each well at 200 ul.
At pre-determined intervals (24, 48, 72, and 96 hours and once weekly thereafter for a total of 12 weeks), a loopful of hyphal growth from the bottom of each well was removed to a glass microscope slide containing a drop of calcofluor white stain (fluorescent KOH) and covered with a cover slip. Slides were examined microscopically under both white light and UV light. Images from a representative field visualized under each light source were be recorded.
Samples showing significant differences in morphology between exposure of a terbinafine formulation vs. terbinafine alone were further examined under Scanning Electron Microscopy (SEM). Preparation of samples for SEM were performed following previously established methodology (see. Chandra et al., 2001. J. Dent. Res. 80:903-908).

[2] = tested on: Aspergillus flavus; assay: Minimum inhibitory concentration (MIC100), CLSI M38-A2 broth dilution
Protocol: (§1) Antifungal activity of the antifungal formulations of the invention against dermatophytes, as compared to terbinafine hydrochloride alone, is determined in various dermatophytes known to cause onychomycosis, including Trichophyton rubrum, T. mentagrophytes, and Epidermophyton floccosum. Antifungal activity of the antifungal formulations of the invention as compared to terbinafine hydrochloride alone, was determined in various pathogenic fungi, including Aspergillus flavus and Aspergillus fumigatus. Antifungal activity of the antifungal formulations of the invention was measured by the minimum inhibitory concentration (MIC). Antifungal activity can also be measured by minimum fungicidal concentration (MFC).
(§2) Several strains of Aspergillus flavus, Aspergillus fumigatus, and Candida albicans were tested. Trichophyton rubrum MYA4498 and T. mentagrophytes MYA4439, the QC isolates approved by the Clinical and Laboratory Standards Institute (CLSI) for dermatophyte susceptibility testing, can also be tested.
(§3) MIC testing was performed according to the CLSI M38A2 standard for the susceptibility testing of dermatophytes developed at the Center for Medical Mycology (See, Ghannoum et al., 2004, J Clin Microbial. 42(7): 2977-2979 CLSI, Reference Method for Broth Dilution Antifungal Susceptibility Testing of Filamentous Fungi: Approved Standard-Second Edition. CLSI document M38-A2 [ISBN 1-56238-668-9]. CLSI, 940 West Valley Road, Suite 1400, Wayne, Pa. 19087-1898 USA, 2008). Briefly, RPMI was the test medium, incubation temperature and time was 35° C. and 24 hours or 48 hours, respectively, and the inoculum size was 1-3×10^3 conidia/ml. The MIC endpoint was 100% inhibition as compared to the growth control.
(§4) The MIC range, MIC100 (defined as the minimum concentration required to inhibit 100% of the isolates tested), for the antifungal preparations of the invention and comparators was computed. The MFC range, MFC50, MFC90, and MFC100 for the antifungal preparations of the invention and comparators can also be computed.
(§5) In this example, the terbinafine formulation of the invention comprises terbinafine formulated with a phospholipid and a surfactant.

[3] = tested on: Aspergillus fumigatus; assay: as above
Protocol: as §1, §2, §3, §4, §5

[4] = tested on: Trichophyton rubrum MYA4498; assay: Morphological effects of antifungal preparations on dermatophyte hyphae in vitro (calcofluor white microscopy); conditions: T. rubrum hyphae; for Week 1 Change in morphology If yes, description of change: hydrochloride; remark: listed apart in the source

Q: How did the morphological changes observed ([1]; 3 mg/mL, 24, 48, 72 and 96 hours) turn out when `CN(C/C=C/C#CC(C)(C)C)Cc1cccc2ccccc12` [Terbinafine hydrochloride, terbinafine hydrochloride] was run?
A: The morphological changes observed was “no morphological changes”.

Q: What about the “Week 1 Change in morphology If yes, description of change” value (“Week 1 Change in morphology If yes” below) ([1]; 3 mg/mL) of the same molecule?
A: Its value is “no presence of vacuoles within the hyphae”.

Q: What about the “Week 1 Change in morphology If yes” value ([1]; 3 mg/mL, listed as Tcrbinafine) of the same molecule?
A: Its value is “no”.

Q: And the “Week 2 Change in morphology If yes, description of change” value (“Week 2 Change in morphology If yes” below) ([1]; 3 mg/mL)?
A: Its value is “Yes: hyphae under”.

Q: And the “24 hour Change in morphology If yes, description of change” value (“24 hour Change in morphology If yes” below) ([1]; 15 mg/mL, 24 hour)?
A: The value was “no”.

Q: What about the “48 hour Change in morphology If yes, description of change” value (“48 hour Change in morphology If yes” for short) ([1]; 15 mg/mL, 48 hour) of the same molecule?
A: Its value is “no”.

Q: What about the “72 hour Change in morphology If yes, description of change” value (from here on “72 hour Change in morphology If yes”) ([1]; 15 mg/mL, 72 hour) of the same molecule?
A: The value was “no”.

Q: What about the “96 hour Change in morphology If yes, description of change” value (from here on “96 hour Change in morphology If yes”) ([1]; 15 mg/mL, 96 hour) of the same molecule?
A: The value was “no”.

Q: What about the “Week 1 Change in morphology If yes” value ([1]; 15 mg/mL, listed as Terbinafine) of the same molecule?
A: Its value is “no”.

Q: What about the “Week 1 Change in morphology If yes” value ([1]; 15 mg/mL, listed as terbinafine) of the same molecule?
A: The value was “no presence of vacuoles within the hyphae”.

Q: What about the “Week 2 Change in morphology If yes” value ([1]; 15 mg/mL) of the same molecule?
A: The value was “no”.

Q: What about the MIC ([2]; 24 h, A. flavus strain MRL No. 17840, 24 hours, read-out: MIC100 (μg/mL) in 24 hours) of the same molecule?
A: The MIC was 0.002 µg/mL.

Q: And the MIC ([2]; 24 h, A. flavus strain MRL No. 17842, 24 hours, read-out: MIC100 (μg/mL) in 24 hours)?
A: The MIC was 0.002 µg/mL.

Q: And the MIC ([2]; 24 h, A. flavus strain MRL No. 18736, 24 hours, read-out: MIC100 (μg/mL) in 24 hours)?
A: The MIC was 6e-05 µg/mL.

Q: What about the MIC ([2]; 24 h, A. flavus strain MRL No. 18743, 24 hours, read-out: MIC100 (μg/mL) in 24 hours) of the same molecule?
A: Its MIC is 0.008 µg/mL.

Q: And the MIC ([2]; 24 h, A. flavus strain MRL No. 18744, 24 hours, read-out: MIC100 (μg/mL) in 24 hours)?
A: Its MIC is 0.008 µg/mL.

Q: What about the MIC ([2]; 48 h, A. flavus strain MRL No. 17840, 48 hours, read-out: MIC100 (μg/mL) in 48 hours) of the same molecule?
A: The MIC was 0.004 µg/mL.

Q: And the MIC ([2]; 48 h, A. flavus strain MRL No. 17842, 48 hours, read-out: MIC100 (μg/mL) in 48 hours)?
A: Its MIC is 0.002 µg/mL.

Q: What about the MIC ([2]; 48 h, A. flavus strain MRL No. 18736, 48 hours, read-out: MIC100 (μg/mL) in 48 hours) of the same molecule?
A: Its MIC is 0.002 µg/mL.

Q: What about the MIC ([2]; 48 h, A. flavus strain MRL No. 18743, 48 hours, read-out: MIC100 (μg/mL) in 48 hours) of the same molecule?
A: Its MIC is 0.015 µg/mL.

Q: And the MIC ([2]; 48 h, A. flavus strain MRL No. 18744, 48 hours, read-out: MIC100 (μg/mL) in 48 hours)?
A: Its MIC is 0.002 µg/mL.

Q: And the MIC ([3]; 24 h, A. fumigatus strain MRL No. 2456, 24 hours, read-out: MIC100 (μg/mL) in 24 hours)?
A: The MIC was 0.25 µg/mL.

Q: And the MIC ([3]; 24 h, A. fumigatus strain MRL No. 2471, 24 hours, read-out: MIC100 (μg/mL) in 24 hours)?
A: The MIC was 0.25 µg/mL.

Q: And the MIC ([3]; 24 h, A. fumigatus strain MRL No. 2574, 24 hours, read-out: MIC100 (μg/mL) in 24 hours)?
A: The MIC was 0.5 µg/mL.

Q: And the MIC ([3]; 24 h, A. fumigatus strain MRL No. 16621, 24 hours, read-out: MIC100 (μg/mL) in 24 hours)?
A: The MIC was 0.5 µg/mL.

Q: And the MIC ([3]; 24 h, A. fumigatus strain MRL No. 16629, 24 hours, read-out: MIC100 (μg/mL) in 24 hours)?
A: Its MIC is 0.5 µg/mL.

Q: What about the MIC ([3]; 48 h, A. fumigatus strain MRL No. 2456, 48 hours, read-out: MIC100 (μg/mL) in 48 hours) of the same molecule?
A: The MIC was 234 µg/mL.

Q: What about the MIC ([3]; 48 h, A. fumigatus strain MRL No. 2471, 48 hours, read-out: MIC100 (μg/mL) in 48 hours) of the same molecule?
A: Its MIC is 234 µg/mL.

Q: What about the MIC ([3]; 48 h, A. fumigatus strain MRL No. 2574, 48 hours, read-out: MIC100 (μg/mL) in 48 hours) of the same molecule?
A: The MIC was 234 µg/mL.

Q: What about the MIC ([3]; 48 h, A. fumigatus strain MRL No. 16627, 48 hours, read-out: MIC100 (μg/mL) in 48 hours) of the same molecule?
A: The MIC was 234 µg/mL.

Q: What about the MIC ([3]; 48 h, A. fumigatus strain MRL No. 16629, 48 hours, read-out: MIC100 (μg/mL) in 48 hours) of the same molecule?
A: The MIC was 234 µg/mL.

Q: And the morphological changes observed ([4]; 1 μg/mL, 24, 48, 72 and 96 hours)?
A: The morphological changes observed was “no morphological changes”.

Q: And the “24 hour Change in morphology If yes” value ([4]; 1 μg/mL)?
A: Its value is “no”.

Q: And the “48 hour Change in morphology If yes” value ([4]; 1 μg/mL)?
A: The value was “no”.

Q: And the “72 hour Change in morphology If yes” value ([4]; 1 μg/mL)?
A: The value was “no”.

Q: And the “96 hour Change in morphology If yes” value ([4]; 1 μg/mL)?
A: The value was “no”.

Q: What about the “Week 1 Change in morphology If yes” value ([4]; 1 μg/mL, listed as Terbinafine) of the same molecule?
A: The value was “Yes: hyphae under”.

Q: What about the “Week 1 Change in morphology If yes” value ([4]; 1 μg/mL, listed as terbinafine) of the same molecule?
A: The value was “had vacuoles within the hyphae”.

Q: And the “Week 2 Change in morphology If yes” value ([4]; 1 μg/mL, Week 2)?
A: The value was “Yes: hyphae under”.

Q: And the “24 hour Change in morphology If yes” value ([4]; 3 mg/mL)?
A: Its value is “no”.

Q: What about the “48 hour Change in morphology If yes” value ([4]; 3 mg/mL) of the same molecule?
A: Its value is “no”.

Q: And the “72 hour Change in morphology If yes” value ([4]; 3 mg/mL)?
A: The value was “no”.

Q: And the “96 hour Change in morphology If yes” value ([4]; 3 mg/mL)?
A: The value was “no”.

Source: patent publication US20120245107A1, “METHODS OF REDUCING THE PROLIFERATION AND VIABLILITY OF MICROBIAL AGENTS” (Targeted Delivery Technologies Limited, priority 2009, published 2012)
